In the Kinase Knowledgebase extract (Sharma et al. 2016):

Biological target: EGFR (UniProt P00533)
Sequence (P00533 whole entry, looked up): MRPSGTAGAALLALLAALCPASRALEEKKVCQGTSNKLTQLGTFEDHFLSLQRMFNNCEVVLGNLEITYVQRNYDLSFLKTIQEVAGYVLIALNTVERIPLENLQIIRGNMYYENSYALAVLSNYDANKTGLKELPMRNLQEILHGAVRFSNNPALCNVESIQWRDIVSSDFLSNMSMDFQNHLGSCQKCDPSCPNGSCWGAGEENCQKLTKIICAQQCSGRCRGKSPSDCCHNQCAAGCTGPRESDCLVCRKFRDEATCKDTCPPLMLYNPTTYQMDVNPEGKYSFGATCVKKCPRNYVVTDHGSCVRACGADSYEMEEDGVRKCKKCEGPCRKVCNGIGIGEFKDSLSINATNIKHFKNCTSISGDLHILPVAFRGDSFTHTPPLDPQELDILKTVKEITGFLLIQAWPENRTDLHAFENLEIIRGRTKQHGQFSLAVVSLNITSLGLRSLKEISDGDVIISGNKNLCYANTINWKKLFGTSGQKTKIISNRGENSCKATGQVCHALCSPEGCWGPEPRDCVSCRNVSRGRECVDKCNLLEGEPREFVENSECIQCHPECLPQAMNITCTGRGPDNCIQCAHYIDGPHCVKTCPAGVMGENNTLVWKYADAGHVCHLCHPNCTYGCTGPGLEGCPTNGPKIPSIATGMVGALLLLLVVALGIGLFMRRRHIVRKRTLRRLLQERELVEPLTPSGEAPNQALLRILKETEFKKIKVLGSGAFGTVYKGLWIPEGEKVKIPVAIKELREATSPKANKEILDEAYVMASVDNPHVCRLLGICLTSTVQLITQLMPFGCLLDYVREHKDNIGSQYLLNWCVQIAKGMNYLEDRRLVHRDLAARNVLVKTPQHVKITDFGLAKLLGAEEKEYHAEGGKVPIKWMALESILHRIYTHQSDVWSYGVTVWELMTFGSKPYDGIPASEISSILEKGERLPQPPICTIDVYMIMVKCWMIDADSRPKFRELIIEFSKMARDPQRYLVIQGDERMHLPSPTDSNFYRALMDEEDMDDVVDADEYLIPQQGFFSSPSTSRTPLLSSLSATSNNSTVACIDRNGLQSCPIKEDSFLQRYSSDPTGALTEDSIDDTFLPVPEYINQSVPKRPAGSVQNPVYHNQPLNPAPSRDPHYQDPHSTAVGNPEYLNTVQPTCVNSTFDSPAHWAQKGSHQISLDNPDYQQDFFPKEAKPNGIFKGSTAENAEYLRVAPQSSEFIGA

SMILES	IC50 [nM]
COc1cc2c(Nc3ccc(Cl)c(Cl)c3)ncnc2cc1OCC1CN(C(N)=NC#N)CCO1 (stereo not given)	< 50
COc1cc2c(Nc3ccc(Cl)c(Cl)c3)ncnc2cc1OCC1CN(C)CCN1C (stereo not given)	< 50
CCCC(CCC)C(=O)N1CCOC(COc2cc3ncnc(Nc4ccc(Cl)c(Cl)c4)c3cc2OC)C1 (stereo not given)	< 50
CCC(=O)N1CCOC(COc2cc3ncnc(Nc4ccc(Cl)c(Cl)c4)c3cc2OC)C1 (stereo not given)	< 50
COc1cc2c(Nc3ccc(Br)cc3Br)ncnc2cc1OCC1CN(C)CCO1 (stereo not given)	< 50
COc1cc2c(Nc3cc(Cl)c(Br)cc3F)ncnc2cc1OC[C@H]1CN2CCOC[C@H]2CO1	< 50
COc1cc2c(Nc3ccc(Cl)c(Cl)c3)ncnc2cc1OC1CO[C@@H]2[C@@H](OC)CO[C@H]12 (stereo not given in full)	< 50
COc1cc2c(Nc3ccc(Cl)c(Cl)c3F)ncnc2cc1OC[C@H]1CN2CCOC[C@H]2CO1	< 50
COc1cc2c(Nc3ccc(Cl)c(Cl)c3)ncnc2cc1OCC1CN(CCC2CCCCC2)CCCO1 (stereo not given)	< 50
COc1ccc(-c2nc(COc3cc4ncnc(Nc5ccc(Cl)c(Cl)c5)c4cc3OC)no2)cc1	< 50
COc1cc2c(Nc3cc(C(F)(F)F)ccc3Br)ncnc2cc1O[C@@H]1CO[C@@H]2[C@H]1OC[C@H]2F	< 50
COc1cc2c(Nc3ccc(Cl)c(Cl)c3)ncnc2cc1OCc1csc([C@@H]2CCCN2)n1	< 50
COc1cc2c(Nc3cccc(C(F)(F)F)c3F)ncnc2cc1O[C@@H]1CO[C@@H]2[C@H]1OC[C@H]2F	< 50
COc1cc2c(Nc3ccc(Cl)c(Cl)c3)ncnc2cc1OC[C@H]1CN2CCC[C@@H]2CO1	< 50
COc1cc2c(Nc3ccc(F)c(F)c3F)ncnc2cc1O[C@@H]1CO[C@@H]2[C@H]1OC[C@H]2F	< 50
COc1cc2c(Nc3ccc(Cl)c(Cl)c3)ncnc2cc1OCC1CN(CCCCCC#N)CCO1 (stereo not given)	< 50
COc1cc2c(Nc3ccc(Cl)c(Cl)c3)ncnc2cc1OCc1csc(C2CCNCC2)n1	< 50
COc1cc2c(Nc3cc(Cl)c(Cl)cc3F)ncnc2cc1OC[C@H]1C[C@@H]2CN(C)C[C@@H]2C1	< 50
CCCCCCCCN1CCOC(COc2cc3ncnc(Nc4ccc(Cl)c(Cl)c4)c3cc2OC)C1 (stereo not given)	< 50
COc1cc2c(Nc3ccc(Cl)c(Cl)c3)ncnc2cc1OCC1CN(C(=O)C2CCCC2)CCO1 (stereo not given)	< 50
COc1cc2c(Nc3ccc(Cl)c(Cl)c3)ncnc2cc1OCCC1OCCCO1	< 50
COc1cc2c(Nc3ccc(C)c(Br)c3)ncnc2cc1O[C@@H]1CO[C@@H]2[C@H]1OC[C@H]2F	< 50
COc1cc2c(Nc3ccc(Cl)c(Cl)c3)ncnc2cc1OCC1CN(Cc2ccc(F)cc2)CCO1 (stereo not given)	< 50

SMILES	IC50 [nM]
COc1cc2c(Nc3ccc(Cl)c(Cl)c3)ncnc2cc1OCC1CN(CC2CC2)CCO1 (stereo not given)	< 50
COc1cc2c(Nc3cccc(Cl)c3C)ncnc2cc1O[C@H]1CO[C@H]2[C@@H]1OC[C@@H]2OC	< 50
COc1cc2c(Nc3ccc(Cl)c(Cl)c3)ncnc2cc1OCc1nc2c(s1)CNCC2	< 50
COc1cc2c(Nc3ccc(Br)c(Cl)c3)ncnc2cc1O[C@H]1CO[C@@H]2[C@H]1OC[C@@H]2NC(C)=O	< 50
COc1cc2c(Nc3ccc(Cl)c(Cl)c3)ncnc2cc1OCCC1CCCCC1	< 50
COc1cc2c(Nc3ccc(Cl)c(Cl)c3)ncnc2cc1OC[C@@H]1O[C@@H](OC)[C@@H](O)[C@@H](O)[C@H]1O	< 50
CCCCCCN1CCOC(COc2cc3ncnc(Nc4ccc(Cl)c(Cl)c4)c3cc2OC)C1 (stereo not given)	< 50
COc1cc2c(Nc3ccc(Br)c(Cl)c3Cl)ncnc2cc1O[C@H]1CO[C@H]2[C@@H]1OC[C@@H]2OC	< 50
COc1cc2c(Nc3ccc(Cl)c(Cl)c3)ncnc2cc1OCc1csc(C2CCCNC2)n1 (stereo not given)	< 50
COc1cc2c(Nc3ccc(F)c(Cl)c3F)ncnc2cc1O[C@@H]1CO[C@@H]2[C@H]1OC[C@H]2F	< 50
COc1cc2c(Nc3ccc(Cl)c(Cl)c3)ncnc2cc1OCc1nc(CN2CCOCC2)cs1	< 50
COc1cc2c(Nc3ccc(F)cc3Cl)ncnc2cc1O[C@@H]1CO[C@@H]2[C@H]1OC[C@H]2F	< 50
CCN1CCN(c2nc(COc3cc4ncnc(Nc5ccc(Cl)c(Cl)c5)c4cc3OC)cs2)CC1	< 50
COc1cc2c(Nc3ccc(Cl)c(Cl)c3)ncnc2cc1OCC1CN(CCC(C)C)CCCO1 (stereo not given)	< 50
COc1cc2c(Nc3cccc(Br)c3Cl)ncnc2cc1OCC1CN(C)CCO1 (stereo not given)	< 50
COc1ccc(OC)c(Nc2ncnc3cc(O[C@@H]4CO[C@@H]5[C@H]4OC[C@H]5F)c(OC)cc23)c1	< 50
COc1cc2c(Nc3ccc(Cl)c(Cl)c3)ncnc2cc1OCC1CCC1	< 50
COc1cc2c(Nc3ccc(Cl)c(Cl)c3)ncnc2cc1OCC1CN(S(=O)(=O)c2ccc(F)cc2)CCO1 (stereo not given)	< 50
COc1cc2c(Nc3cccc(Cl)c3)ncnc2cc1O[C@@H]1CO[C@@H]2[C@H]1OC[C@H]2F	< 50
COc1cc2c(Nc3ccc(Cl)c(Cl)c3)ncnc2cc1OCc1nc(-c2ccncc2)cs1	< 50
COc1cc2c(Nc3cc(Cl)ccc3C)ncnc2cc1O[C@@H]1CO[C@@H]2[C@H]1OC[C@H]2F	< 50
COc1cc2c(Nc3ccc(Cl)c(Cl)c3)ncnc2cc1OC1CC2CCC(C1)N2C (stereo not given)	< 50
